Experimental data taken from patent US20220370453A1 (Storm Therapeutics Ltd, priority 2019, published 2022).

How the values were obtained:
BCDIN3D [1] = molecular target: T1, BCDIN3D (Homo sapiens, UniProt Q7Z5W3); assay: BCDIN3D IC50 RFMS (RapidFire) assay with mini-helix; assay type: biochemical; details: mini-helix substrate 0.2 μM, SAM 6 μM, 25 nM enzyme
T1 sequence (Q7Z5W3 1-292): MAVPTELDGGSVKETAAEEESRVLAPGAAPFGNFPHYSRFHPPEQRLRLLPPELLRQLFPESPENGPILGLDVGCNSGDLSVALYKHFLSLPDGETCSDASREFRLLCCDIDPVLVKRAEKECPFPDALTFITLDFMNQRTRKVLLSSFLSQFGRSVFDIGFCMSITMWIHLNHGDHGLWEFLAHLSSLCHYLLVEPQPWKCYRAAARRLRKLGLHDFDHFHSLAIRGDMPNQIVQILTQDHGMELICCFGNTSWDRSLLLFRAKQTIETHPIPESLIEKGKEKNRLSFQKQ
Outline: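 SAH formation was measured by RapidFire mass spectrometry with D4- and 13C10-SAH internal standards after TCA quench. Substrates 6 μM SAM and 0.2 μM mini-helix reacted 1 h at 37 °C with 25 nM enzyme, which had been preincubated 10 min with compound (1% DMSO) in Tris pH 8.0 buffer with DTT, EDTA, BSA.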

BCDIN3D [2] = molecular target: T1, BCDIN3D; assay: BCDIN3D InCellPulse thermal stability assay in transfected A549 cells; assay type: cell-based; details: transiently transfected A549 cells, heat shock 58° C. 15 min
Outline: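 Thermal stabilisation read-out: after a 15 min 58 °C heat shock, ePL-tagged BCDIN3D in transiently transfected A549 cells (1500/well) was quantified by enzyme-fragment complementation luminescence. Compounds were pre-incubated with cells 1 h at 37 °C, 0.6% DMSO final.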

| Compound | IC50 (BCDIN3D [1]) | IC50 (BCDIN3D [2]) |
| --- | --- | --- |
| Cn1ncc2c(NC3(C(C)(C)C)CC3)nc(NC[C@H](N)c3ccccc3)nc21 [Compound 4.79, N6-[(2R)-2-amino-2-phenyl-ethyl]-N4-(1-tert-butylcyclopropyl)-1-methyl-pyrazolo[3,4-d]pyrimidine-4,6-diamine] | 2300 nM | 3200 nM |
| Cn1ncc2c(NC3CC34CC4)nc(NC[C@H](N)c3ccccc3)nc21 (stereo partly drawn) [Compound 4.80, N6-[(2R)-2-amino-2-phenyl-ethyl]-1-methyl-N4-spiro[2.2]pentan-2-yl-pyrazolo[3,4-d]pyrimidine-4,6-diamine] | 656 nM | 518 nM |
| Cn1ncc2c(NC3CC(CO)(CCl)C3)nc(NCC(N)c3ccccc3)nc21 (centres unmarked) [Compound 4.81, [3-[[6-[(2-amino-2-phenyl-ethyl)amino]-1-methyl-pyrazolo[3,4-d]pyrimidin-4-yl]amino]-1-(chloromethyl)cyclobutyl]methanol] | 583 nM | 625 nM |
| Cn1ncc2c(NC3CC(F)(F)C3)nc(NC[C@H](N)c3ccccc3)nc21 [Compound 4.85, N6-[(2R)-2-amino-2-phenyl-ethyl]-N4-(3,3-difluorocyclobutyl)-1-methyl-pyrazolo[3,4-d]pyrimidine-4,6-diamine] | 172 nM | 267 nM |
| Cn1ncc2c(NC3(C)CC(F)(F)C3)nc(NC[C@H](N)c3ccccc3)nc21 [Compound 4.86, N6-[(2R)-2-amino-2-phenyl-ethyl]-N4-(3,3-difluoro-1-methyl-cyclobutyl)-1-methyl-pyrazolo[3,4-d]pyrimidine-4,6-diamine] | 1600 nM | 1450 nM |
| Cn1ncc2c(N[C@H]3C[C@@H](F)C3)nc(NC[C@H](N)c3ccccc3)nc21 [Compound 4.90, N6-[(2R)-2-amino-2-phenyl-ethyl]-N4-(3-fluorocyclobutyl)-1-methyl-pyrazolo[3,4-d]pyrimidine-4,6-diamine] | 576 nM | 989 nM |

Stronger by IC50 (BCDIN3D [1]), values ahead:

| IC50 (BCDIN3D [1]) | IC50 (BCDIN3D [2]) | Compound |
| --- | --- | --- |
| 25.6 nM | 40.8 nM | Cn1ncc2c(NC3CC4(C3)CC(F)(F)C4)nc(NCC(N)c3ccccc3)nc21 (centres unmarked) [Compound 4.82, N6-(2-amino-2-phenyl-ethyl)-N4-(2,2-difluorospiro[3.3]heptan-6-yl)-1-methyl-pyrazolo[3,4-d]pyrimidine-4,6-diamine] |
| 75.5 nM | 94.4 nM | Cn1ncc2c(NC3CCC3)nc(NC[C@H](N)c3ccccc3)nc21 [Compound 4.83, N6-[(2R)-2-amino-2-phenyl-ethyl]-N4-cyclobutyl-1-methyl-pyrazolo[3,4-d]pyrimidine-4,6-diamine] |
| 137 nM | 125 nM | Cn1ncc2c(NC3(C)CCC3)nc(NC[C@H](N)c3ccccc3)nc21 [Compound 4.84, N6-[(2R)-2-amino-2-phenyl-ethyl]-1-methyl-N4-(1-methylcyclobutyl)pyrazolo[3,4-d]pyrimidine-4,6-diamine] |
| 50.7 nM | 70.9 nM | CC1CC(Nc2nc(NC[C@H](N)c3ccccc3)nc3c2cnn3C)C1 (stereo partly drawn) [Compound 4.87, N6-[(2R)-2-amino-2-phenyl-ethyl]-1-methyl-N4-(3-methylcyclobutyl)pyrazolo[3,4-d]pyrimidine-4,6-diamine] |
| 112 nM | 148 nM | Cn1ncc2c(NC3CC(F)C3)nc(NC[C@H](N)c3ccccc3)nc21 (stereo partly drawn) [Compound 4.88, N6-[(2R)-2-amino-2-phenyl-ethyl]-N4-(3-fluorocyclobutyl)-1-methyl-pyrazolo[3,4-d]pyrimidine-4,6-diamine] |
| 109 nM | 223 nM | Cn1ncc2c(N[C@H]3C[C@H](F)C3)nc(NC[C@H](N)c3ccccc3)nc21 [Compound 4.89, N6-[(2R)-2-amino-2-phenyl-ethyl]-N4-(3-fluorocyclobutyl)-1-methyl-pyrazolo[3,4-d]pyrimidine-4,6-diamine] |
| 129 nM | 263 nM | Cn1ncc2c(NC3CC(C#N)C3)nc(NC[C@H](N)c3ccccc3)nc21 (stereo partly drawn) [Compound 4.91, 3-[[6-[[(2R)-2-amino-2-phenyl-ethyl]amino]-1-methyl-pyrazolo[3,4-d]pyrimidin-4-yl]amino]cyclobutanecarbonitrile] |
